In PubChem BioAssay AID248 (DTP/NCI, 2004):
“And” between values parts separate entries of the source, which are not always exact repeats. Equal entries are not always repeated. Inconclusive results and toxic doses are left out. Cut-off read from the data, not from the text of the source: active = T/C of 150% or more; inactive = T/C below 125%.

Tested on: L1210 leukemia ip in BDF1 mice, survival T/C
Test: NCI In Vivo Anticancer Drug Screen. Data for tumor model L1210 Leukemia (intraperitoneal) in B6D2F1 (BDF1) mice
Conditions: endpoint: mean survival time, higher = longer survival
Procedure, shortened: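 Transplanted-tumor mice were given test agent; controls received vehicle only. Survival readings from the two groups were divided (treated over control).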

[1] = dose: 60.0 mg/kg/injection, schedule: Q01DX015 (ip), vehicle: saline
[2] = dose: 100.0 mg/kg/injection, schedule: Q01DX009 (ip), vehicle: saline with Tween-80
[3] = dose: 200.0 mg/kg/injection, schedule: Q01DX009 (ip), vehicle: saline with Tween-80
[4] = dose: 50.0 mg/kg/injection, schedule: Q01DX009 (ip), vehicle: saline with Tween-80

Measured: T/C

N#CCc1ccc([N+](=O)[O-])cc1
inactive: dose: 12.5 mg/kg/injection, schedule: Q01DX009 (ip), vehicle: Klucel (hydroxypropylcellulose) (HPC) 102 % of control | dose: 12.5 mg/kg/injection, schedule: Q04DX003 (ip), vehicle: Klucel (hydroxypropylcellulose) (HPC) 98 % of control | dose: 25.0 mg/kg/injection, schedule: Q01DX009 (ip), vehicle: Klucel (hydroxypropylcellulose) (HPC) 106 % of control | dose: 25.0 mg/kg/injection, schedule: Q04DX003 (ip), vehicle: Klucel (hydroxypropylcellulose) (HPC) 106 % of control | dose: 50.0 mg/kg/injection, schedule: Q04DX003 (ip), vehicle: Klucel (hydroxypropylcellulose) (HPC) 98 % of control

Brc1ccc(C[N+]23CN4CN(CN(C4)C2)C3)cc1
inactive: dose: 15.0 mg/kg/injection, schedule: Q01DX015 (ip), vehicle: saline 103 % of control | dose: 30.0 mg/kg/injection, schedule: Q01DX015 (ip), vehicle: saline 102 % of control | [1] 102 % of control | [2] 101 % of control | dose: 100.0 mg/kg/injection, schedule: Q04DX003 (ip), vehicle: saline 105 % of control | dose: 120.0 mg/kg/injection, schedule: Q01DX015 (ip), vehicle: saline 105 % of control | [3] 102 % of control | dose: 200.0 mg/kg/injection, schedule: Q04DX003 (ip), vehicle: saline 103 % of control | dose: 240.0 mg/kg/injection, schedule: Q01DX015 (ip), vehicle: saline 98 % of control | dose: 400.0 mg/kg/injection, schedule: Q04DX003 (ip), vehicle: saline 92 % of control

NC(=O)c1cc(Cl)ccc1N
inactive: dose: 100.0 mg/kg/injection, schedule: Q01DX001 (ip), vehicle: other 97 % of control | dose: 200.0 mg/kg/injection, schedule: Q01DX001 (ip), vehicle: other 97 % of control | dose: 400.0 mg/kg/injection, schedule: Q01DX001 (ip), vehicle: other 105 % of control

CCCCCCCC/C=C\CCCCCCCC(=O)OCCSCCOC(C)=O
inactive: [2] 97 % of control | dose: 100.0 mg/kg/injection, schedule: Q04DX003 (ip), vehicle: saline with Tween-80 89 % of control | [3] 102 % of control | dose: 200.0 mg/kg/injection, schedule: Q04DX003 (ip), vehicle: saline with Tween-80 92 % of control | dose: 400.0 mg/kg/injection, schedule: Q01DX009 (ip), vehicle: saline with Tween-80 102 % of control | dose: 400.0 mg/kg/injection, schedule: Q04DX003 (ip), vehicle: saline with Tween-80 94 % of control

CCCP(CCC)c1ccccc1
inactive: dose: 100.0 mg/kg/injection, schedule: Q01DX009 (sc), vehicle: olive oil, sesame oil, peanut oil 96 % of control | dose: 100.0 mg/kg/injection, schedule: Q04DX003 (sc), vehicle: olive oil, sesame oil, peanut oil 93 % of control | dose: 200.0 mg/kg/injection, schedule: Q01DX009 (sc), vehicle: olive oil, sesame oil, peanut oil 113 % of control | dose: 200.0 mg/kg/injection, schedule: Q04DX003 (sc), vehicle: olive oil, sesame oil, peanut oil 95 % of control | dose: 400.0 mg/kg/injection, schedule: Q01DX009 (sc), vehicle: olive oil, sesame oil, peanut oil 100 % of control | dose: 400.0 mg/kg/injection, schedule: Q04DX003 (sc), vehicle: olive oil, sesame oil, peanut oil 91 % of control

O=C1OC(/C=C/c2ccccc2)=NC/1=C\c1cc(Br)ccc1O
inactive: dose: 100.0 mg/kg/injection, schedule: Q04DX002 (ip), vehicle: saline with Tween-80 104 % of control | dose: 200.0 mg/kg/injection, schedule: Q04DX002 (ip), vehicle: saline with Tween-80 95 % of control and 97 % of control | dose: 400.0 mg/kg/injection, schedule: Q04DX002 (ip), vehicle: saline with Tween-80 104 % of control and 114 % of control

COC(=O)c1ccc(C)cc1C(=O)OC
inactive: [4] 107 % of control | [2] 111 % of control | [3] 107 % of control

CC(=O)N(c1ccccc1)c1nc(CCl)cs1
inactive: dose: 100.0 mg/kg/injection, schedule: Q01DX001 (ip), vehicle: carboxymethylcellulose (CMC) 100 % of control | dose: 100.0 mg/kg/injection, schedule: Q01DX009 (ip), vehicle: carboxymethylcellulose (CMC) 88 % of control | dose: 100.0 mg/kg/injection, schedule: Q04DX002 (ip), vehicle: carboxymethylcellulose (CMC) 97 % of control and 100 % of control | dose: 100.0 mg/kg/injection, schedule: Q04DX003 (ip), vehicle: carboxymethylcellulose (CMC) 100 % of control | dose: 200.0 mg/kg/injection, schedule: Q01DX001 (ip), vehicle: carboxymethylcellulose (CMC) 108 % of control | dose: 200.0 mg/kg/injection, schedule: Q01DX009 (ip), vehicle: carboxymethylcellulose (CMC) 98 % of control and 89 % of control | dose: 200.0 mg/kg/injection, schedule: Q04DX002 (ip), vehicle: carboxymethylcellulose (CMC) 95 % of control and 103 % of control | dose: 200.0 mg/kg/injection, schedule: Q04DX003 (ip), vehicle: carboxymethylcellulose (CMC) 102 % of control | dose: 400.0 mg/kg/injection, schedule: Q01DX001 (ip), vehicle: carboxymethylcellulose (CMC) 93 % of control | dose: 400.0 mg/kg/injection, schedule: Q01DX009 (ip), vehicle: carboxymethylcellulose (CMC) 98 % of control and 103 % of control | dose: 400.0 mg/kg/injection, schedule: Q04DX002 (ip), vehicle: carboxymethylcellulose (CMC) 100 % of control and 102 % of control | dose: 400.0 mg/kg/injection, schedule: Q04DX003 (ip), vehicle: carboxymethylcellulose (CMC) 104 % of control

CCCCc1ccc(-n2c(C)c(COC(=O)NC)c(COC(=O)NC)c2C)cc1
inactive: dose: 3.12 mg/kg/injection, schedule: Q01DX009 (ip), vehicle: Klucel (hydroxypropylcellulose) (HPC) 122 % of control | dose: 6.25 mg/kg/injection, schedule: Q01DX009 (ip), vehicle: Klucel (hydroxypropylcellulose) (HPC) 122 % of control

CC12C=CC(=O)C=C1CCC1C2C(O)CC2(C)C1CCC2(O)C(=O)CSc1ncnc2nc[nH]c12 (configuration not stated)
inactive: [1] 92 % of control | dose: 90.0 mg/kg/injection, schedule: Q01DX015 (ip), vehicle: saline 100 % of control | dose: 100.0 mg/kg/injection, schedule: Q01DX001 (sc), vehicle: steriod suspending solution 112 % of control | dose: 135.0 mg/kg/injection, schedule: Q01DX015 (ip), vehicle: saline 92 % of control | dose: 200.0 mg/kg/injection, schedule: Q01DX001 (sc), vehicle: steriod suspending solution 112 % of control | dose: 200.0 mg/kg/injection, schedule: Q01DX015 (ip), vehicle: saline 92 % of control | dose: 400.0 mg/kg/injection, schedule: Q01DX001 (sc), vehicle: steriod suspending solution 97 % of control

C[n+]1ccc(/C=C/c2ccnc3c(O)cccc23)c2ccccc21
inactive: dose: 15.0 mg/kg/injection, schedule: Q01DX001 (ip), vehicle: saline 112 % of control

CCCCCCCCCCCCCCCCCC[N+](C)(C)C
inactive: dose: 1.0 mg/kg/injection, schedule: Q01DX015 (ip), vehicle: saline 94 % of control | dose: 2.0 mg/kg/injection, schedule: Q01DX015 (ip), vehicle: saline 94 % of control | dose: 3.12 mg/kg/injection, schedule: Q01DX009 (ip), vehicle: saline 94 % of control | dose: 4.0 mg/kg/injection, schedule: Q01DX015 (ip), vehicle: saline 95 % of control | dose: 6.25 mg/kg/injection, schedule: Q01DX009 (ip), vehicle: saline 94 % of control | dose: 12.5 mg/kg/injection, schedule: Q04DX003 (ip), vehicle: saline 87 % of control

O=C1c2ccccc2C(=O)c2c(O)c(Cc3ccccn3)cc(O)c21
inactive: dose: 100.0 mg/kg/injection, schedule: Q04DX003 (ip), vehicle: saline sonified 89 % of control | dose: 200.0 mg/kg/injection, schedule: Q04DX003 (ip), vehicle: saline sonified 89 % of control | dose: 400.0 mg/kg/injection, schedule: Q04DX003 (ip), vehicle: saline sonified 94 % of control

CC(C)=C(CO)CCC(C)C
inactive: [4] 100 % of control | [2] 94 % of control | [3] 89 % of control

CCOC(=O)Cc1ccc2[nH]c(C(=O)OCC)cc(=O)c2c1
inactive: dose: 100.0 mg/kg/injection, schedule: Q01DX001 (ip), vehicle: saline 95 % of control | dose: 200.0 mg/kg/injection, schedule: Q01DX001 (ip), vehicle: saline 90 % of control | dose: 400.0 mg/kg/injection, schedule: Q01DX001 (ip), vehicle: saline 95 % of control

COC(=O)c1c(C)n(C)c2c1c1c(O)c3c(O)c(C)c4c(c32)C(=O)C(C)(O/C=C/C(OC)C(C)C(OC(C)=O)C(C)C(O)C(C)C(O)C(C)/C=C\C=C(C)C(=O)N1)O4 (configuration not stated)
inactive: dose: 50.0 mg/kg/injection, schedule: Q04DX003 (ip), vehicle: water 104 % of control | dose: 100.0 mg/kg/injection, schedule: Q04DX003 (ip), vehicle: water 100 % of control | dose: 200.0 mg/kg/injection, schedule: Q04DX003 (ip), vehicle: water 98 % of control | dose: 400.0 mg/kg/injection, schedule: Q04DX003 (ip), vehicle: water 98 % of control
